Where two headings read alike, the source gives them in different places. Blank lines part the entries; values can stand above or below the compound they belong to.
Columns and labels:
[1] = Absorption in rats after intragastric administration of different crystal forms (plasma PK, LC/MS/MS); format: in vivo; conditions: 8 mg/kg
Description: SD rats were intragastrically administered samples of different crystal forms. Blood samples (0.4 mL) were respectively collected from the venous plexus of the rat's fundus oculi at various time points: before administration and at 5, 15, 30, 60, 90, 120, 240, 360, 480, 600, and 1440 minutes after administration. The blood samples were centrifuged at 8000 rpm for 5 minutes to separate the upper plasma. 50 μL of plasma sample was added with 300 μL of acetonitrile containing an internal standard (Propranolol, 25 ng/mL) to precipitate proteins. The mixture was vortexed for 10 minutes, and centrifuged at 6000 g and 4° C. for 20 minutes. The supernatant (20 μL) was taken and diluted with 80 μL of ultrapure water. After centrifugation, 80 μL of the supernatant was taken for injection into a 96-well plate. The plasma drug concentration was determined using LC/MS/MS, and the corresponding pharmacokinetic parameters were calculated, as shown in Table 17.

ErbB2 kinase (HER2) = target: T1, ErbB2 kinase (HER2) (Homo sapiens, UniProt P04626); assay: EGFR/ErbB2 enzymatic assay (HTRF kinEASE-TK), ErbB2; format: biochemical; conditions: ErbB2 kinase 0.06 ng/μL, ATP 4 μM
T1 construct: purchased Sigma E2645-500UN
T1 sequence (P04626 23-1255): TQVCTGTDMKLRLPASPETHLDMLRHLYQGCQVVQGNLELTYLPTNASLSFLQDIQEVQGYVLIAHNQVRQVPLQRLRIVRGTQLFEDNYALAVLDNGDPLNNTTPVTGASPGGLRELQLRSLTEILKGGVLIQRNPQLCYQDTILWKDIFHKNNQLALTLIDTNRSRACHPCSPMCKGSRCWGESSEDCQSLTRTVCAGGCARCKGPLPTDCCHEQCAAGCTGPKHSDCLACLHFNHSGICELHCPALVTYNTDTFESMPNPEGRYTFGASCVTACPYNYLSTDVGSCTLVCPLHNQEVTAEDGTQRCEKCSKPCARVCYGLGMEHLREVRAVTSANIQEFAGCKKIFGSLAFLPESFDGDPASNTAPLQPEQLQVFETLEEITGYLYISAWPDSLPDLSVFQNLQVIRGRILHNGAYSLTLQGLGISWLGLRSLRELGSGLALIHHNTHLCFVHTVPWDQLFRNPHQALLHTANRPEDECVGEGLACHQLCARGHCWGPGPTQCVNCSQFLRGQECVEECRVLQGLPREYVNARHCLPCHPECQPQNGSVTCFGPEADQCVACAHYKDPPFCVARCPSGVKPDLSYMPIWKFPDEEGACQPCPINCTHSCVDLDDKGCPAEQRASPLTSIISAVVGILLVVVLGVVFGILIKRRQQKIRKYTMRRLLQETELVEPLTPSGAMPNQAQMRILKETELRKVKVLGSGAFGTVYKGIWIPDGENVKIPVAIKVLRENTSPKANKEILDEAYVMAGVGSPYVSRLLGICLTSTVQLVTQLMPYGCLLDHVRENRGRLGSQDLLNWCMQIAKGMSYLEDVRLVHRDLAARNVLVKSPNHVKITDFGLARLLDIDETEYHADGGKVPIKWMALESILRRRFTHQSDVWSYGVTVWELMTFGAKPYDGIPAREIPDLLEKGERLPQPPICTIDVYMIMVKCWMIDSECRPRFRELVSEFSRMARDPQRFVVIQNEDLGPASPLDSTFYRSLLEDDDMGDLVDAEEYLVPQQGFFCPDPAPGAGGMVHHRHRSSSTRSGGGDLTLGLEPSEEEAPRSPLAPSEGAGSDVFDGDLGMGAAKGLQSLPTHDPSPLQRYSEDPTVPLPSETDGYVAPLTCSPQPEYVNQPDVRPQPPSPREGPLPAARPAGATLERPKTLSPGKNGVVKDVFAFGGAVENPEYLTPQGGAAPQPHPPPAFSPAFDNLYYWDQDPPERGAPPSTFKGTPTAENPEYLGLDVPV
Description: (§1) First, a 1× reaction buffer required for the kinase was prepared by diluting the 5× Enzymatic Buffer (HEPES 20 mM, pH 7.0, NaN3 0.1%, BSA 0.05%, sodium orthovanadate 0.5 mM) from the HTRF kinEASE-TK kit with deionized water to one-fold. At the same time, 50 nM Supplement Enzymatic Buffer (SEB reagent), 1 mM MnCl2, 5 mM MgCl2, and 1 mM DTT were added. Next, a 5× compound solution was prepared. […] This initial concentration was then used as the first concentration, and further diluted with DMSO in a 3-fold serial dilution to dilute a total of 10 concentrations. Subsequently, 1 μL of the serially diluted solution was added to 19 μL of 1× reaction buffer to prepare the 5× compound solution for later use. Then, 2 μL of the 5× compound solution was transferred from the 96-well plate into a 384-well plate. In the no-compound control wells, 2 μL of a mixture of 1 μL DMSO and 19 μL 1× reaction buffer was added. In the blank control wells, 2 μL of 250 mM EDTA was added. In the third step, the enzyme reaction stage, the kinase, substrate (TK Substrate-biotin), and ATP were prepared into a 2.5× enzyme/substrate mixture and a 2.5× ATP solution using the 1× reaction buffer. […] Data were measured on EnVision™, with a 337 nm laser used as the excitation light. The RFU was measured at 665 nm and 620 nm, and RFU 665 nM/RFU 620 nM×10000 was used as the final data for analysis.

EGFR kinase = target: T2, EGFR kinase (Homo sapiens, UniProt P00533); assay: EGFR/ErbB2 enzymatic assay (HTRF kinEASE-TK), EGFR; format: biochemical; conditions: EGFR kinase 0.06 units/μL, ATP 1.65 μM
T2 construct: purchased Carna 08-016
T2 sequence (P00533 25-1210): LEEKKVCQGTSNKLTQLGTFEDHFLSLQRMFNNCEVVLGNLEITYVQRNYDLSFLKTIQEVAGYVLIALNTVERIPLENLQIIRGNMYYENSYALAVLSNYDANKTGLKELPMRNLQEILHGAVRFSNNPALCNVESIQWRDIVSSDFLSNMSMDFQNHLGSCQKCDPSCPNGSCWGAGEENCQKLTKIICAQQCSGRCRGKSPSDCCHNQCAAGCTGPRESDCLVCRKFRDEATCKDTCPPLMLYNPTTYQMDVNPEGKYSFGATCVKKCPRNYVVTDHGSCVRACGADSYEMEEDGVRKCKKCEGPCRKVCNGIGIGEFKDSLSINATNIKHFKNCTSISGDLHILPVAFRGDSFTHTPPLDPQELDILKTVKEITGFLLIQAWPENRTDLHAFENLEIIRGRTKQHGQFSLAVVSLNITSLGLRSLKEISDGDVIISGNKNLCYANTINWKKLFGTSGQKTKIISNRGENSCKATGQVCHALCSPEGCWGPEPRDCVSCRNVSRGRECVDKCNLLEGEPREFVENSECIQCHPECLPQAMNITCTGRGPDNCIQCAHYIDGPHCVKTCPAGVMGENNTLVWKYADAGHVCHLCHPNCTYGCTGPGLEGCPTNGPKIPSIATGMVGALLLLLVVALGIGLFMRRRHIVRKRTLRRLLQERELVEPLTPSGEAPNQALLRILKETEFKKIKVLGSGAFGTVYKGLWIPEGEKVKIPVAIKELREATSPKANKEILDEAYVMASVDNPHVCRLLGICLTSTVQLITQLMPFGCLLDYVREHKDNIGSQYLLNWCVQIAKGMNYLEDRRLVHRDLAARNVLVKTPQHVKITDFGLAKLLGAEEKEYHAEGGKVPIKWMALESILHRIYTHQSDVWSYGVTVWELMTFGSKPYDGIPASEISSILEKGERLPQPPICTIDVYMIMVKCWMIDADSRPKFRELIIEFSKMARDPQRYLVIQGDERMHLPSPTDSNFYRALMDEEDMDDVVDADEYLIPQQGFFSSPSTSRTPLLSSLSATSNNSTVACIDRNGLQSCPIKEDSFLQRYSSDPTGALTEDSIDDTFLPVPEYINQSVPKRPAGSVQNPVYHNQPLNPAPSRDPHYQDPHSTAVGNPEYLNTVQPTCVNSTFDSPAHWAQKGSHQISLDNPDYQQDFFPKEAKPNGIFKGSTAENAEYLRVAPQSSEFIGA
Description: as §1

[2] = Physicochemical stability of crystal form C (UPLC purity, XRPD)
Description: The solid samples after being placed under different conditions were respectively tested for purity by UPLC to evaluate chemical stability, and the crystal form was tested by XRPD to evaluate physical stability. […] Additionally, no significant degradation was observed after one day at 60° C. or one week at 25° C./60% RH and 40° C./75% RH (details of purity changes are provided in Table 16).

Structure (SMILES): CCOc1cc2ncnc(Nc3ccc(Oc4ccn5ncnc5c4)c(C)c3)c2cc1NC(=O)/C(F)=C/[C@H]1CCCN1C [Crystal form B, (R,Z)-N-(4-((4-([1,2,4]triazolo[1,5-α]pyridin-7-yloxy)-3-methylphenyl)amino)-7-ethoxyquinazolin-6-yl)-2-fluoro-3-(1-methylpyrrolidin-2-yl)acrylamide]
AUCextra ([1]; SD rats): 1.01 (h)*(ng/mL)
AUClast ([1]; SD rats): 5904 (h)*(ng/mL)
AUCtot ([1]; SD rats): 5965 (h)*(ng/mL)
Cmax ([1]; SD rats): 599 ng/mL
MRT ([1]; SD rats): 6.07 h
Tmax ([1]; SD rats): 6.00 h
t1/2 ([1]; SD rats): 3.34 h

Structure (SMILES): CCOc1cc2ncnc(Nc3ccc(Oc4ccn5ncnc5c4)c(C)c3)c2cc1NC(=O)/C(F)=C/[C@H]1CCCN1C [Amorphous form, (R,Z)-N-(4-((4-([1,2,4]triazolo[1,5-α]pyridin-7-yloxy)-3-methylphenyl)amino)-7-ethoxyquinazolin-6-yl)-2-fluoro-3-(1-methylpyrrolidin-2-yl)acrylamide]
AUCextra ([1]; SD rats): 0.758 (h)*(ng/mL)
AUClast ([1]; SD rats): 6536 (h)*(ng/mL)
AUCtot ([1]; SD rats): 6586 (h)*(ng/mL)
Cmax ([1]; SD rats): 800 ng/mL
Tmax ([1]; SD rats): 6.00 h
half-life ([1]; SD, rat, plasma, po): 3.03 h
MRT ([1]; SD, rat, plasma, po, read-out: MRT): 6.52 h

Structure (SMILES): CCOc1cc2ncnc(Nc3ccc(Oc4ccn5ncnc5c4)c(C)c3)c2cc1NC(=O)/C(F)=C/[C@H]1CCCN1C [Crystal form C, (R,Z)-N-(4-((4-([1,2,4]triazolo[1,5-α]pyridin-7-yloxy)-3-methylphenyl)amino)-7-ethoxyquinazolin-6-yl)-2-fluoro-3-(1-methylpyrrolidin-2-yl)acrylamide]
IC50 (ErbB2 kinase (HER2)): 0.26 nM
IC50 (EGFR kinase): 1.45 nM
AUCextra ([1]; SD rats): 0.451 (h)*(ng/mL)
AUClast ([1]; SD rats): 6863 (h)*(ng/mL)
AUCtot ([1]; SD rats): 6894 (h)*(ng/mL)
Cmax ([1]; SD rats): 1165 ng/mL
MRT ([1]; SD rats): 4.63 h
Tmax ([1]; SD rats): 2.00 h
t1/2 ([1]; SD rats): 3.04 h
Stability sample purity ([2]; 25° C./60% RH, 1 week, open): 99.29 area %
Peak at RRT 0.63 ([2]; 25° C./60% RH, one week): 0.18%
Peak at RRT 0.67 ([2]; 25° C./60% RH, one week): 0.18%
Peak at RRT 0.95 ([2]; 25° C./60% RH, one week): 0.08%
Peak at RRT 1.00 ([2]; 25° C./60% RH, one week): 99.29%
Peak at RRT 1.03 ([2]; 25° C./60% RH, one week): 0.12%
Peak at RRT 1.08 ([2]; 25° C./60% RH, one week): 0.15%
Stability sample purity ([2]; 40° C./75% RH, 1 week, open): 99.29 area %
Peak at RRT 0.63 ([2]; 40° C./75% RH, one week): 0.18%
Peak at RRT 0.67 ([2]; 40° C./75% RH, one week): 0.18%
Peak at RRT 0.95 ([2]; 40° C./75% RH, one week): 0.08%
Peak at RRT 1.00 ([2]; 40° C./75% RH, one week): 99.29%
Peak at RRT 1.03 ([2]; 40° C./75% RH, one week): 0.12%
Peak at RRT 1.08 ([2]; 40° C./75% RH, one week): 0.15%
Stability sample purity ([2]; 60° C., 24 hours, sealed): 99.29 area %
Peak at RRT 0.63 ([2]; 60° C., one day): 0.18%
Peak at RRT 0.67 ([2]; 60° C., one day): 0.18%
Peak at RRT 0.95 ([2]; 60° C., one day): 0.08%
Peak at RRT 1.00 ([2]; 60° C., one day): 99.29%
Peak at RRT 1.03 ([2]; 60° C., one day): 0.12%
Peak at RRT 1.08 ([2]; 60° C., one day): 0.15%
Peak at RRT 0.63 ([2]; Initial sample): 0.18%
Peak at RRT 0.67 ([2]; Initial sample): 0.18%
Peak at RRT 0.95 ([2]; Initial sample): 0.08%
Peak at RRT 1.00 ([2]; Initial sample): 99.31%
Peak at RRT 1.03 ([2]; Initial sample): 0.10%
Peak at RRT 1.08 ([2]; Initial sample): 0.15%
Crystal form change ([2]; XRPD, 60° C. 24 hours, 25° C./60% RH 1 week, 40° C./75% RH 1 week): No
Initial purity ([2]; before storage, UPLC): 99.31 area %

Results, then the compound that gave them:

AUCextra ([1]; SD rats): 0.169 (h)*(ng/mL)
AUClast ([1]; SD rats): 2870 (h)*(ng/mL)
AUCtot ([1]; SD rats): 2875 (h)*(ng/mL)
Cmax ([1]; SD rats): 489 ng/mL
MRT ([1]; SD rats): 4.59 h
Tmax ([1]; SD rats): 2.00 h
t1/2 ([1]; SD rats): 2.55 h
Structure (SMILES): CCOc1cc2ncnc(Nc3ccc(Oc4ccn5ncnc5c4)c(C)c3)c2cc1NC(=O)/C(F)=C/[C@H]1CCCN1C [Crystal form M, (R,Z)-N-(4-((4-([1,2,4]triazolo[1,5-α]pyridin-7-yloxy)-3-methylphenyl)amino)-7-ethoxyquinazolin-6-yl)-2-fluoro-3-(1-methylpyrrolidin-2-yl)acrylamide]

AUCextra ([1]; SD rats): 0.288 (h)*(ng/mL)
AUClast ([1]; SD rats): 4789 (h)*(ng/mL)
AUCtot ([1]; SD rats): 4802 (h)*(ng/mL)
Cmax ([1]; SD rats): 753 ng/mL
MRT ([1]; SD rats): 4.74 h
Tmax ([1]; SD rats): 2.00 h
t1/2 ([1]; SD rats): 2.74 h
Structure (SMILES): CCOc1cc2ncnc(Nc3ccc(Oc4ccn5ncnc5c4)c(C)c3)c2cc1NC(=O)/C(F)=C/[C@H]1CCCN1C [Crystal form A, (R,Z)-N-(4-((4-([1,2,4]triazolo[1,5-α]pyridin-7-yloxy)-3-methylphenyl)amino)-7-ethoxyquinazolin-6-yl)-2-fluoro-3-(1-methylpyrrolidin-2-yl)acrylamide]

Source: patent US20250163053A1, “CRYSTALLINE FORM OF NITROGEN-CONTAINING HETEROCYCLIC COMPOUND, PREPARATION METHOD THEREFOR AND USE THEREOF” (SHANGHAI PHARMACEUTICALS HOLDING CO., LTD., priority 2022, published 2025)
